This note sets out measurements from patent US9133139B2, “Fluoroalkyl-1,4-benzodiazepinone compounds” (BRISTOL-MYERS SQUIBB COMPANY, priority 2012, dated 2015).

Data set [1] in a line: Human metabolic stability half-life assay (liver microsomes). Format: in vitro ADME. The note with it: pH 7.4, human liver microsomes, CYP-mediated (NADPH-dependent), 0.5 μM compound, 45-minute time course, read-out: HLM (t1/2, min). The procedure:
Metabolic Stability Half-Life Panel
Result Interpretation Guideline
Incubation with Liver Microsomes
Sample Analysis—Instrumentation

A further data set deals with TALL-1. The experiment in a line: Human Tumor Xenograft Models in Mice, TALL-1. It is filed as in vivo. The procedure: Human Tumor Xenograft Models in Mice
Mice were fed food and water ad libitum.
Preclinical Chemotherapy Trials
When death occurred, the day of death was recorded.
In Vivo Antitumor Activity

A further data set concerns human Notch 1. The experiment in a line: Notch-CBF1 Transactivation Assay (luciferase reporter, transfected HeLa cells), Notch 1. It is filed as cell-based. Conditions: read-out: Notch 1 (IC50); HeLa cells transfected with truncated Notch 1 and CBF1 luciferase reporter, 18 hours incubation. The text has this:
Notch-CBF1 Transactivation Assay
The Notch-CBF1 (C-promoter binding factor I) cell based transactivation assay is based on the ability of the released Notch intracellular domain fragments (NICDs) to function as transcription factors in conjunction with CBF1 and other nuclear factors. Luciferase assays were used to measure the antagonism of Notch-CBF1 transcriptional activity. HeLa cervical cancer cells are transiently co-transfected with pCDNA3.1/Hygro plasmids containing truncated Notch 1, Notch 2, Notch 3, or Notch 4 receptors and a PGL3 luciferase reporter vector containing 4 copies of CBF1 binding site. The cells were then tested for Notch-CBF1 activity in the absence or presence of test compounds. HeLa cells, maintained in DMEM (high glucose with HEPES), 1× glutamine/penicillin/streptomycin and 10% Fetal Bovine serum, were transiently transfected in a T175 Flask (4.5×10^6 cells/flask) using the Monster Transfection Kit (Minis #MIR2906) according to manufacturers specifications. Table 2 denotes respective DNA quantity for the transfections.
Assay media (5 μL) containing test compounds in final concentrations ranging from 5 μM to 8.4×10^−5 μM (3 fold serial dilutions) were added to the cells and the cell plates were then incubated for 18 hours at 37° C. and 5% CO2. Control wells contained DMSO vehicle (total counts) or 0.5 μM of an in-house small molecule inhibitor (background counts). Duplicates were used for each sample. Luciferase activity was measured after a 20-minute incubation with 50 μl STEADY-GLO® luciferase reagents according to manufacturer's specifications (Promega, Cat. #E2550) and analyzed by Envision plate reader (PerkinElmer, Boston, Mass.).
The antagonist effect of compounds was expressed as 100×[1−(average sample−average background)/(average total−average background)] where sample is the luciferase activity in the presence of test compound, background is equal to the luciferase activity in the presence of the small molecule inhibitor control and the total is signal induced in DMSO wells.

In the case of `NC(=O)[C@@H](c1ccccc1)[C@@H](CCC(F)(F)F)C(=O)N[C@H]1N=C(c2cccc(F)c2)c2cccc(OC3CC3)c2NC1=O` [Example 35, (2R,3R)—N1-((S)-9-Cyclopropoxy-5-(3-fluorophenyl)-2-oxo-2,3-dihydro-1H-benzo[e][1,4]diazepin-3-yl)-3-phenyl-2-(3,3,3-trifluoropropyl)succinamide], the half-life at 0.5 μM in data set [1] is ≥ 30 min. For the compound `CN1C(=O)[C@@H](NC(=O)[C@H](CCC(F)(F)F)[C@@H](C(N)=O)c2ccccc2)N=C(c2ccccc2)c2ccccc21` [Example 1, (2R,3R)—N-((3S)-1-Methyl-2-oxo-5-phenyl-2,3-dihydro-1H-1,4-benzodiazepin-3-yl)-3-phenyl-2-(3,3,3-trifluoropropyl)succinamide], in the data set with TALL-1 (Dose 24 (unit not given), oral, QD, TALL-1 xenograft in NOD-SCID mice), the “Antitumor Activity in TALL-1 (LCK), QD dosing” value is on record as 3.5 LCK. The “antitumor activity with oral administration (PO)” value in the data set on TALL-1 (Human Tumor Xenograft Models in mice, oral administration) is listed as “showed antitumor activity”.

Take `NC(=O)[C@@H](c1ccccc1)[C@@H](CCC(F)(F)F)C(=O)N[C@H]1N=C(c2ccccc2)c2ccccc2N(c2ccccn2)C1=O` [Example 12, (2R,3R)—N-((3S)-2-Oxo-5-phenyl-1-(2-pyridinyl)-2,3-dihydro-1H-1,4-benzodiazepin-3-yl)-3-phenyl-2-(3,3,3-trifluoropropyl)succinamide]: the IC50 in the data set with human Notch 1 turned out to be 0.0136 µM.

Regarding `COc1ccc(N2C(=O)[C@@H](NC(=O)[C@H](CCC(F)(F)F)[C@@H](C(N)=O)c3conc3C)N=C(c3ccccc3)c3ccccc32)nc1` [Example 14, (2R,3R)—N-((3S)-1-(5-Methoxy-2-pyridinyl)-2-oxo-5-phenyl-2,3-dihydro-1H-1,4-benzodiazepin-3-yl)-3-(3-methyl-4-isoxazolyl)-2-(3,3,3-trifluoropropyl)succinamide], the half-life at 0.5 μM in data set [1] was ≥ 30 min. As to `Cc1nocc1[C@H](C(N)=O)[C@@H](CCC(F)(F)F)C(=O)N[C@H]1N=C(c2ccccc2)c2ccccc2NC1=O` [Example 9], in data set [1], the half-life at 0.5 μM was ≥ 30 min.

With `C=CC[C@H](C(N)=O)[C@@H](CC(C)C)C(=O)N[C@H]1N=C(c2ccccc2)c2ccccc2N(CCC)C1=O` [Comparative Compound 40, reference compound], the half-life at 0.5 μM in data set [1] was ≤ 8 min. Take `COc1ccc(N2C(=O)[C@@H](NC(=O)[C@H](CCC(F)(F)F)[C@@H](C(N)=O)c3ccccc3)N=C(c3ccccc3)c3ccccc32)nc1` [Example 15, (2R,3R)—N-((3S)-1-(5-Methoxy-2-pyridinyl)-2-oxo-5-phenyl-2,3-dihydro-1H-1,4-benzodiazepin-3-yl)-3-phenyl-2-(3,3,3-trifluoropropyl)succinamide]: the IC50 with human Notch 1 turned out to be 0.0178 µM. `COc1cccc2c1NC(=O)[C@@H](NC(=O)[C@H](CCC(F)(F)F)[C@@H](C(N)=O)c1ccc(Cl)cc1)N=C2c1ccccc1` [Example 36, (2R,3R)-3-(4-Chlorophenyl)-N1-((S)-9-methoxy-2-oxo-5-phenyl-2,3-dihydro-1H-benzo[e][1,4]diazepin-3-yl)-2-(3,3,3-trifluoropropyl)succinamide]: in data set [1], the half-life at 0.5 μM is ≥ 30 min. For the compound `Cc1nocc1[C@H](C(N)=O)[C@@H](CCC(F)(F)F)C(=O)N[C@H]1N=C(c2ccccc2)c2ccccc2N(c2ccccn2)C1=O` [Example 11, (2R,3R)-3-(3-Methyl-4-isoxazolyl)-N-((3S)-2-oxo-5-phenyl-1-(2-pyridinyl)-2,3-dihydro-1H-1,4-benzodiazepin-3-yl)-2-(3,3,3-trifluoropropyl)succinamide], the IC50 in the data set on human Notch 1 was found to be 0.0129 µM. In addition, the half-life at 0.5 μM in data set [1] was ≥ 30 min. Take `Cc1nocc1[C@H](C(N)=O)[C@@H](CCC(F)(F)F)C(=O)N[C@H]1N=C(c2ccccc2)c2ccccc2N(C)C1=O` [Example 6, (2R,3R)—N1-((S)-1-Methyl-2-oxo-5-phenyl-2,3-dihydro-1H-benzo[e][1,4]diazepin-3-yl)-3-(3-methylisoxazol-4-yl)-2-(3,3,3-trifluoropropyl)succinamide]: the half-life at 0.5 μM in data set [1] is ≥ 30 min. On to `Cc1cccc2c1NC(=O)[C@@H](NC(=O)[C@H](CCC(F)(F)F)[C@@H](C(N)=O)c1ccccc1)N=C2c1cccc(C(F)F)c1` [Example 34, (2R,3R)—N1-((S)-5-(3-(Difluoromethyl)phenyl)-9-methyl-2-oxo-2,3-dihydro-1H-benzo[e][1,4]diazepin-3-yl)-3-phenyl-2-(3,3,3-trifluoropropyl)succinamide], for which the half-life at 0.5 μM in data set [1] was ≥ 30 min.

Take `Cc1cccc2c1NC(=O)[C@@H](NC(=O)[C@H](CCC(F)(F)F)[C@@H](C(N)=O)c1conc1C)N=C2c1cccc(Cl)c1` [Example 32, (2R,3R)—N1-((S)-5-(3-Chlorophenyl)-9-methyl-2-oxo-2,3-dihydro-1H-benzo[e][1,4]diazepin-3-yl)-3-(3-methylisoxazol-4-yl)-2-(3,3,3-trifluoropropyl)succinamide]: the half-life at 0.5 μM in data set [1] was ≥ 30 min. Same read-out and setting: for `CCCC[C@H](C(N)=O)[C@@H](CC(C)C)C(=O)N[C@H]1N=C(c2ccc(Cl)cc2)c2ccccc2N(C)C1=O` [Comparative Compound 39, reference compound] the value was ≤ 8 min; for `Cc1cccc2c1NC(=O)[C@@H](NC(=O)[C@H](CCC(F)(F)F)[C@@H](C(N)=O)c1ccccc1)N=C2c1cccc(C(F)(F)F)c1` [Example 29, (2R,3R)—N1-((S)-9-Methyl-2-oxo-5-(3-(trifluoromethyl)phenyl)-2,3-dihydro-1H-benzo[e][1,4]diazepin-3-yl)-3-phenyl-2-(3,3,3-trifluoropropyl)succinamide], ≥ 30 min; for `COc1cccc2c1NC(=O)[C@@H](NC(=O)[C@H](CCC(F)(F)F)[C@@H](C(N)=O)c1conc1C)N=C2c1ccccc1` [Example 20, (2R,3R)—N1-((S)-9-Methoxy-2-oxo-5-phenyl-2,3-dihydro-1H-benzo[e][1,4]diazepin-3-yl)-3-(3-methylisoxazol-4-yl)-2-(3,3,3-trifluoropropyl)succinamide], ≥ 30 min. On the same count and under the same terms, under `CCC[C@H](C(N)=O)[C@@H](CC(C)C)C(=O)N[C@H]1N=C(c2ccccc2)c2ccccc2N(C)C1=O` [Comparative Compound 37, reference compound] stands ≤ 8 min. Consider `Cc1nocc1[C@H](C(N)=O)[C@@H](CCC(F)(F)F)C(=O)N[C@H]1N=C(c2ccccc2)c2cccc(Cl)c2NC1=O` [Example 17, (2R,3R)—N1-((S)-9-Chloro-2-oxo-5-phenyl-2,3-dihydro-1H-benzo[e][1,4]diazepin-3-yl)-3-(3-methylisoxazol-4-yl)-2-(3,3,3-trifluoropropyl)succinamide], for which, in data set [1], the half-life at 0.5 μM is ≥ 30 min. Turning to `Cc1cccc2c1NC(=O)[C@@H](NC(=O)[C@H](CCC(F)(F)F)[C@@H](C(N)=O)c1ccccc1)N=C2c1ccc(F)cc1` [Example 27, (2R,3R)—N1-((S)-5-(4-Fluorophenyl)-9-methyl-2-oxo-2,3-dihydro-1H-benzo[e][1,4]diazepin-3-yl)-3-phenyl-2-(3,3,3-trifluoropropyl)succinamide], the IC50 with human Notch 1 was found to be 0.0153 µM. In data set [1], the half-life at 0.5 μM was ≥ 30 min. As for `C=CC[C@H](C(N)=O)[C@@H](CC(C)C)C(=O)N[C@H]1N=C(c2ccccc2)c2cc(Cl)ccc2N(C)C1=O` [Comparative Compound 38, reference compound], in data set [1], the half-life at 0.5 μM is ≤ 8 min. As for `COc1cccc(N2C(=O)[C@@H](NC(=O)[C@H](CCC(F)(F)F)[C@@H](C(N)=O)c3ccccc3)N=C(c3ccccc3)c3ccccc32)n1` [Example 16, (2R,3R)—N-((3S)-1-(6-Methoxy-2-pyridinyl)-2-oxo-5-phenyl-2,3-dihydro-1H-1,4-benzodiazepin-3-yl)-3-phenyl-2-(3,3,3-trifluoropropyl)succinamide], in the data set with human Notch 1, the IC50 turned out to be 0.0164 µM.

On to `Cc1nocc1[C@H](C(N)=O)[C@@H](CCC(F)(F)F)C(=O)N[C@H]1N=C(c2ccccc2)c2cc3c(cc2NC1=O)OCO3` [Example 13, (2R,3R)-3-(3-Methyl-4-isoxazolyl)-N-((7S)-6-oxo-9-phenyl-6,7-dihydro-5H-[1,3]dioxolo[4,5-h][1,4]benzodiazepin-7-yl)-2-(3,3,3-trifluoropropyl)succinamide], for which the half-life at 0.5 μM in data set [1] is ≥ 30 min. Regarding `Cc1cccc2c1NC(=O)[C@@H](NC(=O)[C@H](CCC(F)(F)F)[C@@H](C(N)=O)c1conc1C)N=C2c1cccc(C(F)(F)F)c1` [Example 28, (2R,3R)—N1-((S)-9-Methyl-2-oxo-5-(3-(trifluoromethyl)phenyl)-2,3-dihydro-1H-benzo[e][1,4]diazepin-3-yl)-3-(3-methylisoxazol-4-yl)-2-(3,3,3-trifluoropropyl)succinamide], in data set [1], the half-life at 0.5 μM is ≥ 30 min.
